According to US20020193377A1, “Quinazolines as MMP-13 inhibitors” (priority 2001, published 2002):

Biological target: T1, human collagenase-3 catalytic domain enzyme (MMP13) (Homo sapiens, UniProt P45452)
T1 construct: human collagenase-3 catalytic domain enzyme
Test: MMP13CD Thiopeptolide Assay
Type: biochemical
Procedure: MMP13CD Thiopeptolide Assay: Proteolysis of the thiopeptolide substrate Ac-Pro-Leu-Gly-thioester-Leu-Leu-Gly-OEt is used as the primary screen to determine IC50 values for MMP13 inhibitors. A 100 μl reaction contains 50 mM HEPES, 10 mM CaCl2, pH 7.0 (RT), 1 mM 5,5′-dithiobis(2-nitrobenzoic acid) (DTNB), 100 μM substrate, inhibitor in 2.0% DMSO and 2.5 nM human collagenase-3 catalytic domain enzyme. Inhibitors are screened from 100 μM to 0.5 nM. […] Percentage of control velocity in inhibited treatments is plotted against inhibitor concentration to calculate IC50 values.

| IC50 [nM] | Structure (SMILES) |
| --- | --- |
| 96 | COc1ccc(CNC(=O)c2ccc3c(c2)c(=O)n(Cc2ccc(C(=O)N(C)C)cc2)c(=O)n3C)cc1 [Example 50, 3-(4-Dimethylcarbamoyl-benzyl)-1-methyl-2,4-dioxo-1,2,3,4-tetrahydro quinazoline-6-carboxylic acid 4-methoxy-benzylamide] |
| 62 | CNC(=O)c1ccc(Cn2c(=O)c3cc(C(=O)NCc4ccc(OC)cc4)ccc3n(C)c2=O)cc1 [Example 51, 1-Methyl-3-(4-methylcarbamoyl-benzyl)-2,4-dioxo-1,2,3,4-tetrahydro-quinazoline-6-carboxylic acid 4-methoxy-benzylamide] |
| 7 | Cn1c(=O)n(Cc2ccc(C(=O)O)cc2)c(=O)c2cc(C(=O)NCc3ccc(O)cc3)ccc21 [Example 49, 4-[6-(4-Hydroxy-benzylcarbamoyl)-1-methyl-2,4-dioxo-1,4-dihydro-2H-quinazolin-3-ylmethyl]-benzoic acid] |
| 51 | COc1ccc(CNC(=O)c2ccc3c(c2)c(=O)n(Cc2ccc(OC)cc2)c(=O)n3C)cc1 [Example 18, 3-(4-Methoxybenzyl)-1-methyl-2,4-dioxo-1,2,3,4-tetrahydroquinazoline-6-carboxylic acid 4-methoxybenzylamide] |
| 15 | O=C(NCc1ccc2c(c1)OCO2)c1ccc2[nH]c(=O)n(Cc3ccncc3)c(=O)c2c1 [Example 20, 2,4-Dioxo-3-(pyrid-4-ylmethyl)-1,2,3,4-tetrahydroquinazoline-6-carboxylic acid (benzo[1,3]dioxol-5ylmethyl)amide] |
| 12 | COc1ccc(Cn2c(=O)c3cc(C(=O)NCc4ccc5c(c4)OCO5)ccc3n(C)c2=O)cc1 [Example 17, 3-(4-Methoxybenzyl)-1-methyl-2,4-dixo-1 3,4-tetrahydroquinazoline-6-carboxylic acid (benzo[1,3]dioxo-5-ylmethyl)amide] |
| 193 | O=C(NCc1cccnc1)c1ccc2[nH]c(=O)n(Cc3ccccc3)c(=O)c2c1 [Example 5, 3-Benzyl-2,4-dioxo-1,2,3,-tetrahydroquinazoline-6-carboxylic acid (3-pyridylmethyl)amide] |
| 300 | O=C(NCc1ccc2c(c1)OCO2)c1ccc2[nH]c(=O)n(Cc3ccc(Cl)cc3)c(=O)c2c1 [Example 25, 3-(4-Chlorobenzyl)-2,4-dioxo-1,2,3,4-tetrahydroquinazoline-6-carboxylic acid (benzo[1,3]dioxol-5-ylmethyl)amide] |
| 2250 | Cn1c(=O)n(CCc2ccccc2)c(=O)c2cc(C(=O)NCc3ccc4c(c3)OCO4)ccc21 [Example 15, 1-Methyl-2,4-dioxo-3-phenethyl-1,2,3,4-tetrahydroquinazoline-6-carboxylic acid (benzo[1,3]dioxol-5-ylmethyl)amide] |
| 26 | COC(=O)c1ccc(Cn2c(=O)c3cc(C(=O)NCc4ccc(OC)cc4)ccc3n(C)c2=O)cc1 [Example 34, Methyl 4-[6-(4-methoxy-benzylcarbamoyl)-1-methyl-2,4-dioxo-1,4-dihydro-2H-quinazolin-3-ylmethyl]-benzoate] |
| 3 | Cn1c(=O)[nH]c(=O)c2cc(C(=O)NCc3ccc4c(c3)OCO4)ccc21 [Example 33, 1-Methyl-2,4-dioxo-1,2,3,4-tetrahydrquinazoline-6-carboxylic acid (benzo[1,3]-dioxol-5-ylmethyl)amide] |
| 14 | C=CCn1c(=O)c2cc(C(=O)NCc3ccc(OC)cc3)ccc2n(C)c1=O [Example 52, 3-Allyl-1-methyl-2,4-dioxo-1,2,3,4-tethydro-quinazoline-6-carboxylic acid 4-methoxy-benzylamiide] |
| 16 | O=C(NCc1ccc2c(c1)OCO2)c1ccc2[nH]c(=S)n(Cc3ccccc3)c(=O)c2c1 [Example 48, 3-Benzyl-4-oxo-2-thioxo-1,2,3,4-tetrahydroquinazoline-6-carboxylic acid (benzo[1,3]dioxol-5-ylmethyl)amide] |
| 9 | O=C(NCc1ccccc1)c1ccc2[nH]c(=O)n(Cc3cccs3)c(=O)c2c1 [Example 21, 2,4-Dioxo3-(thien-2-ylmethyl)-1,2,3,4-tetrahydroquinazoline-6-carboxylic acid benzylamide] |
| 29 | Cn1c(=O)c2cc(C(=O)NCc3ccc4c(c3)OCO4)ccc2n(C)c1=O [Example 27, 1,3-Dimethyl-2,4-dioxo-1,2,3,4-tetrahydroquinazoline-6-carboxylic acid (benzo[1,3]dioxol-5-ylmethyl)amide] |
| 1870 | Cc1ccc(CNC(=O)c2ccc3[nH]c(=O)n(Cc4ccccc4)c(=O)c3c2)cc1 [Example 8, 3-Benzyl-2,4-dioxo-1,2,3,4-tetrahydroquinazoline-6-carboxylic acid 4-methylbenzylamide] |
| 2.5 | O=C(OCc1ccccc1)c1cnc2[nH]c(=O)n(Cc3ccccc3)c(=O)c2c1 [Example 46, Benzyl 3-benzyl-2,4-dioxo-1,2,3,4-tetrahydroprido[2,3-d]pyrimidine-6-carboxylate] |

| IC50 [nM] | Structure (SMILES) |
| --- | --- |
| 1 | O=C(OCc1ccncc1)c1ccc2[nH]c(=O)n(Cc3ccccc3)c(=O)c2c1 [Example 39, 4-Pyridylmethyl 3-benzyl-2,4-dioxo-1,2,3,4-tetrahydroqinazoline-6-carboxylate] |
| 4 | O=C(OCc1ccncc1)c1ccc2[nH]c(=O)n(Cc3cccs3)c(=O)c2c1 [Example 44, 4-Pyridylmethyl 2,4-dioxo-3-(thien-2-ylmethyl)-1,2,3,4-tetrahydroquinazoline-6-carboxylate] |
| 51 | Cn1c(=O)n(Cc2cccs2)c(=O)c2cc(C(=O)NCc3ccc4c(c3)OCO4)ccc21 [Example 24, 1-Methyl-2,4-dioxo-3-(thien-2-ylmethyl)-1,2,4,4-tetrahydroquinazoline-6-carboxylic acid (benzo[1,3]dioxol-5-ylmethyl)amide] |
| 29 | O=C(OCc1ccc2c(c1)OCO2)c1ccc2[nH]c(=O)n(Cc3ccccc3)c(=O)c2c1 [Example 41, Benzo[1,3]dioxol-5-ylmethyl3-benzyl-2,4-dioxo-1,2,3,4-tetrahydroquinazoline-6-carboxylate] |
| 167 | COC(=O)c1ccc(CNC(=O)c2ccc3c(c2)c(=O)n(Cc2ccccc2)c(=O)n3C)cc1 [Example 11, Methyl 4-({[1-(3-benzyl-1-methyl-2,4-dioxo-1,2,3,4-tetrahydroquinazolin-6-yl)methanoyl]amino}methyl)benzoate] |
| 750 | O=C(OCc1ccccc1)c1ccc2[nH]c(=O)n(Cc3ccccc3)c(=O)c2c1 [Example 37, Benzyl 3-benzyl-2,4-dioxo-1,2,3,4-tetrahydroquinazolne-6-carboxylate] |
| 9 | CCn1c(=O)n(Cc2ccccc2)c(=O)c2cc(C(=O)NCc3ccc4c(c3)OCO4)ccc21 [Example 30, 3-Benzyl-1-ethyl-2,4-dioxo-1,2,3,4-tetraquinazoline-6-carboxylic acid (benzo[1,3]dioxol-5-ylmethyl)amide] |
| 28 | Cn1c(=O)n(Cc2ccccc2)c(=O)c2cc(C(=O)OCc3ccncc3)ccc21 [Example 40, 4-Pyridylmethyl 3-benzyl-1-methyl-2,4-dioxo-1,3,3,4-tetrahydroquinazoline-6-carboxylate] |
| 42 | COc1ccc(Cn2c(=O)[nH]c3ccc(C(=O)NCc4ccc5c(c4)OCO5)cc3c2=O)cc1 [Example 16, 3-(4-Methoxybenzyl)-2,4-dioxo-1,2,3,4-tetrahydroquinazoline-6-carboxylic acid (benzo[1,3]dioxol-5-ylmethyl)amide] |
| 1210 | O=C(OCc1ccncc1)c1cnc2[nH]c(=O)n(Cc3ccccc3)c(=O)c2c1 [Example 47, 4-Pyridylmethyl 3-benzyl-2,4-dioxo-1,2,3,4-tetrahydropyrido[2,3-α]pyrimidine-6-carboxylate] |
| 600 | Cn1c(=O)n(C/C=C/c2ccccc2)c(=O)c2cc(C(=O)NCc3ccc4c(c3)OCO4)ccc21 [Example 36, 1-Methyl-2,4-dioxo-3-((E)-3phenylally)-1,2,3,4-tetrahydroquinazoline-6-carboxylic acid (benzo[1,3]dioxol-5-ylmethyl)amide] |
| 11 | O=C(OCc1ccccc1)c1ccc2c(c1)c(=O)n(Cc1ccncc1)c(=O)n2Cc1ccccc1 [Example 43, Benzyl 1-benzyl-2,4-dioxo-3-pyrid-4-ylmethyl-1,2,3,4-tetrahydroquinazoline-6carboxylate] |
| 5 | COc1ccc(CNC(=O)c2ccc3c(c2)c(=O)n(Cc2ccccc2)c(=O)n3C)cc1 [Example 13, 3-Benzyl-1-methyl-2,4-dioxo-1,2,3,4-tetrahydroquinazoline-6-carboxylic acid 4-methoxybenzylamide] |
| 21 | O=C(NCc1ccc(Cl)cc1)c1ccc2[nH]c(=O)n(Cc3ccccc3)c(=O)c2c1 [Example 7, 3-Benzyl-2,4-dioxo-1,2,3,4-tetrahydroquinzaoline-6carboxylic acid 4-chlorobenzylamide] |
| 1700 | O=C(NCc1ccc2c(c1)OCO2)c1ccc2c(c1)c(=O)n(Cc1ccccc1)c(=O)n2CC1CC1 [Example 31, 3-Benzyl-1-cyclopropylmethyl-2,4-dioxo-1,2,3,4-tetrahydroquinazoline-6-carboxylic acid (benzo[1,3]dioxol-5-ylmethy)amide] |
| 49 | Cn1c(=O)n(Cc2ccccc2)c(=O)c2cc(C(=O)NCc3ccccc3)ccc21 [Example 10, 3-Benzyl-1-methyl-2,4-dioxo-1,2,3,4-tetrahydroquinazoline-6carboxylic acid benzylamide] |
| 28 | Cn1c(=O)n(Cc2ccc3c(c2)OCO3)c(=O)c2cc(C(=O)NCc3ccc4c(c3)OCO4)ccc21 [Example 29, 3-(Benzo[1,3]dioxol-5-ylmethyl)-1-methyl-2,4-dioxo-1,2,3,4-tetrahydroquinazoline-6carboxylic acid (benzo[1,3]dioxol-5-ylmethyl)amide] |
